Results: patent US20210340524A1, “METHODS FOR IDENTIFYING CHIMERIC ANTIGEN RECEPTOR-TARGETING LIGANDS AND USES THEREOF” (Massachusetts Institute of Technology, priority 2020, published 2021)
Values belong to the compound of their own block, whether it stands above or below them. Where a SMILES comes first, the peptide text is derived from it. Bridges are numbered along the chain shown (N, C = ends). Where no end group is shown, it is not given here. The star is where a group is joined. Biotin = O=C1N[C@H]2[C@H](CS[C@H]2CCCCC(=O)*)N1

Assays:
[1] = Micelle stability of lipid-oligonucleotide conjugates in the presence of serum (FBS); type: physicochemical; conditions: for micelle stability on increasing number of guanines: in the presence of serum
Description: In certain embodiments, the linker is one or more guanines, for example between 1-10 guanines. It has been discovered that altering the number of guanines between a cargo such as a CpG oligonucleotide, and a lipid tail controls micelle stability in the presence of serum proteins. Therefore, the number of guanines in the linker can be selected based on the desired affinity of the conjugate for serum proteins such as albumin. When the cargo is a CpG immunostimulatory oligonucleotide and the lipid tail is a diacyl lipid, the number of guanines affects the ability of micelles formed in aqueous solution to dissociate in the presence of serum: 20% of the non-stabilized micelles (lipo-G0T10-CG) (SEQ ID NO: 138) were intact, while the remaining 80% were disrupted and bonded with FBS components.

FMC63 IgG [2] = assay: ELISA of N-terminally biotinylated F12 variants on streptavidin plate, binding to FMC63 IgG; parameters: species or system murine; conditions: biotinylated peptides, read-out: Kd (nM), FMC63 binding affinity of F12 variants with N-terminal flanking residues
Description: It was further evaluated if addition of flanking residues to the terminus of a FMC63-binding mimotope would increase its binding affinity to FMC63, e.g., by increasing the mimotope surface area available for engaging in protein-protein interactions with FMC63. […] Additional Ser-Gly residues (between 3 and 15 additional residues) were included to further extend the N-terminal flanking region.

FMC63 scFv [3] = assay: Yeast clone binding to biotinylated FMC63 scFv monomer, Kd by FACS; parameters: species or system murine; conditions: yeast clones
Description: Identifying specific mimotope clones of varying affinities will provide flexibility in treatments. In order to validate specific sequences, clones were isolated and measured for their affinity to FMC63. Specifically, a subset of mimotope clones were selected from the fixed library sequence described in Example 5. […] Given the FDA-approved CAR is an scFV derived from the parental IgG, mimotope binding to FMC63-scFv monomer was tested using biotinylated FMC63 scFV to measure Kd by FACS (FIG. 10B). […] This screen positively identified mimotope clones with varying affinities to FMC63 which may be used for a tailored vaccine approach.

[4] = test system: FMC63 anti-hCD19 CAR-T cells; assay: IFNγ secretion of FMC63 CAR-T cells co-cultured with amph-mimotope coated K562 cells (ELISA); type: cell-based; conditions: K562 cells coated with 10 μM amph-mimotope; E:T 10:1; 24 hours; compared to amphiphile only control
Description: To determine the effect of the CD19 amph-mimotope on chimeric antigen receptor (CAR) T cells, in vitro stimulation of CAR-T cells was assessed after co-culture with antigen presenting cells (APCs) providing the amph-mimotope (FIG. 8A). Specifically, K562 cells were pelleted at 1,000×g for 3 minutes and washed with PBS twice to remove residual protein. The cell pellet was then resuspended at 1×10^6 cells/mL in PBS containing amph-mimotope ([…]; SEQ ID NO: 5) at 10 μM and incubated at 37° C. for 30 minutes. The labeling reaction was stopped by pelleting cells and washing with PBS. To mimic antigen presenting cells in lymph nodes, K562 cells were decorated with amph-mimotope, and then co-cultured at an effector to target (E:T) ratio of 10:1 with FMC63 expressing CAR-T cells (hCD19-CAR; SEQ ID NO: 78) for 24 hours. […]

FMC63 scFv [5] = assay: Dissociation kinetics of FMC63 scFv from yeast clones, flow cytometry; type: binding, murine; conditions: yeast clones labeled with FMC63 scFv, washed, incubated 0-72 hours
Description: The dissociation kinetics following binding of the mimotopes to FMC63 were also investigated. Briefly, yeast clone expressing F12 (SEQ ID NO: 18) or K-A1 (SEQ ID NO: 100) were incubated with labeled FMC63 scFv. The yeast were then washed, and incubated for 0-72 hours prior to analysis of the degree of FMC63 scFv labeling by flow cytometry. […] However, the yeast clone expressing K-A1 retained FMC63 even up to 72 hours, indicating slower dissociation kinetics compared to F12.

FMC63 IgG [6] = assay: Mimotope binding to FMC63 after DTT treatment of yeast, flow cytometry; parameters: species or system murine; conditions: DTT 0.01-10 mM, 30 minutes, room temperature
Description: To determine the formation of an intra-peptidyl disulfide bridge formed by the two Cys residues, mimotope expressing yeast were treated in reducing conditions and binding of the mimotope to FMC63 IgG was measured. […] Similarly, control cells expressing Aga2p (connected to the yeast surface by disulfide bridge) were treated with DTT. Following treatment, cells were labelled with biotinylated Aga2p or FMC63 and binding was measured by flow cytometry. At mild reducing conditions, Aga2p was maintained on the yeast surface while mimotope binding to FMC63 was abolished (FIG. 6). The inhibition of mimotope binding to FMC63 following treatment with a reducing agent reaffirms the formation of the disulfide bond and its importance for binding.
Target sequence in this assay (as listed by the source): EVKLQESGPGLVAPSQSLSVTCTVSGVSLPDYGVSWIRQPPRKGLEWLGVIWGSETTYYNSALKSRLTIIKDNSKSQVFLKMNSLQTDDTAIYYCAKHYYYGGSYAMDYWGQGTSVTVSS
Target sequence in this assay (as listed by the source): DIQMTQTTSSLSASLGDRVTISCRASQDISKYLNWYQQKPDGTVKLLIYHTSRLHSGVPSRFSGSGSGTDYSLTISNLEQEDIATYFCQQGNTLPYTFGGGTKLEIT

FMC63 CAR T cells = assay: In vivo proliferation of FMC63 CAR T cells in inguinal lymph nodes (cell trace violet dilution); conditions: mice, s.c. tail base, 10 ug monovalent or 20 ug bivalent + 25 μg cyclic-di-GMP; inguinal LNs 48 hours post-vaccination
Description: CD45.1^+ donor FMC63 CAR T cells were prepared as described in Example 3 and labeled with cell trace violet according to manufacturer's protocol. 2×10^6 CAR T cells were administered into CD45.2^+ recipient mice via tail vein injection on Day 0. The following day, recipient mice were vaccinated by subcutaneous injection at the tail base with the following vaccine formulation: […]
(i) 10 ug of monovalent amph-mimotope (Amph-K-A1 or Amph-K-C2)+25 μg of cyclic-di-GMP in 1×PBS; or
(ii) 20 ug of amph-Bi-F12-mimotope (PEG4 or PEG8)+25 μg of cyclic-di-GMP in 1×PBS.
The volume of the formulation was 100 μL total, and the mice were administered 50 μL per each site of the tail base. Control mice received no vaccination. At 48 hours post-vaccination, recipient mice were euthanized and inguinal LNs were isolated for FACS analysis of CAR T proliferation.

FMC63 scFv, sequence (as listed by the source): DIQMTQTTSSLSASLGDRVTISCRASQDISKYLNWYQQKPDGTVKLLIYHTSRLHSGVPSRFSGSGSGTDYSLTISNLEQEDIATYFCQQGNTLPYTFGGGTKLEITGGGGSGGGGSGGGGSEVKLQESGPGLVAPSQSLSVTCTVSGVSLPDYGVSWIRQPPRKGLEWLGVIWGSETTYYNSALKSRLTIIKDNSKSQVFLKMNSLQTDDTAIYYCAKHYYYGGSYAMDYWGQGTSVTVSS

Compound: lipo-G0T10-CG: diacyl lipid tail, G0T10 linker, CpG immunostimulatory oligonucleotide; non-stabilized micelles (DNA TTTTTTTTTTCG; diacyl lipid tail conjugated, backbone chemistry not given here)
percentage of micelles disrupted and bonded with FBS components ([1]; in the presence of serum (FBS)): 80%

Kd (FMC63 IgG [2]): 0.134 nM
Compound: CC[C@H](C)[C@H](NC(=O)[C@H](CCCNC(=N)N)NC(=O)[C@H](CO)NC(=O)[C@H](C)NC(=O)[C@H](CO)NC(=O)CNC(=O)CNC(=O)CNC(=O)CNC(=O)[C@H](CO)NC(=O)CNC(=O)CNC(=O)CNC(=O)CNC(=O)[C@H](CO)NC(=O)CNC(=O)CCCC[C@@H]1SC[C@@H]2NC(=O)N[C@@H]21)C(=O)N[C@H]1CSSC[C@@H](C(=O)N[C@@H](CCCCN)C(=O)N[C@@H](CCC(=O)O)C(=O)N[C@@H](CC(C)C)C(=O)O)NC(=O)[C@H](CC(N)=O)NC(=O)[C@H](Cc2c[nH]c3ccccc23)NC(=O)[C@@H]2CCCN2C1=O [SEQ ID NO: 98] (Biotin-GSGGGGSGGGGSASRICPWNCKEL-OH; disulfide 17-21)

Kd (FMC63 scFv [3]): > 1000 nM
Compound: RMCPWSCRPH [Clone A8]

Compound: amph-mimotope: DSPE-PEG2000 conjugated onto the N-terminus of synthesized cyclic mimotope RHCPWNCSLL (SEQ ID NO: 5) (disulfide 3-7 (inferred); not fully specified (N-terminus))
activation of CAR-T cells measured by IFNγ secretion [4]: significantly activated

Compound: PRKHSGRICPWNCKELDNPPFIFGNR [K-A1]
time of retention of FMC63 scFv labeling after wash (FMC63 scFv [5]): ≥ 72 h

mimotope binding to FMC63 after DTT treatment (FMC63 IgG [6]): abolished
Compound: RHCPWNCSLL [Clone A1]

Kd (FMC63 IgG [2]): 0.153 nM
Compound: CC[C@H](C)[C@H](NC(=O)[C@H](CCCNC(=N)N)NC(=O)[C@H](CO)NC(=O)[C@H](C)NC(=O)[C@H](CO)NC(=O)CNC(=O)CNC(=O)CNC(=O)CNC(=O)[C@H](CO)NC(=O)CNC(=O)CNC(=O)CNC(=O)CNC(=O)[C@H](CO)NC(=O)CNC(=O)CNC(=O)CNC(=O)CNC(=O)CCCC[C@@H]1SC[C@@H]2NC(=O)N[C@@H]21)C(=O)N[C@H]1CSSC[C@@H](C(=O)N[C@@H](CCCCN)C(=O)N[C@@H](CCC(=O)O)C(=O)N[C@@H](CC(C)C)C(=O)O)NC(=O)[C@H](CC(N)=O)NC(=O)[C@H](Cc2c[nH]c3ccccc23)NC(=O)[C@@H]2CCCN2C1=O [SEQ ID NO: 99] (Biotin-GGGGSGGGGSGGGGSASRICPWNCKEL-OH; disulfide 20-24)

Compound: RICPWNCKEL [Clone F12]
time of retention of FMC63 scFv labeling after wash (FMC63 scFv [5]): ≤ 0.5 h

Compound: lipo-G10T0-CG: diacyl lipid tail, G10T0 linker, CpG immunostimulatory oligonucleotide (DNA GGGGGGGGGGCG; diacyl lipid tail conjugated, backbone chemistry not given here)
micelle stability on increasing number of guanines [1]: did not further enhance micelle stability

Compound: lipo-G8T2-CG: diacyl lipid tail, G8T2 linker, CpG immunostimulatory oligonucleotide (DNA GGGGGGGGTTCG; diacyl lipid tail conjugated, backbone chemistry not given here)
micelle stability on increasing number of guanines [1]: did not further enhance micelle stability

Compound: Amph-K-C2: monovalent amph-mimotope: mimotope SEQ ID NO: 129 conjugated to DSPE-PEG2k (GGGSASRICPWNCKELPSPPRIFGNR; not fully specified; DSPE-PEG2k conjugate; Synthetic: Mimotope of Amph-K-C2)
proliferation of CAR T cells in vivo measured by cell violet dilution (FMC63 CAR T cells): observed

Kd (FMC63 IgG [2]): 0.139 nM
Compound: CC[C@H](C)[C@H](NC(=O)[C@H](CCCNC(=N)N)NC(=O)[C@H](CO)NC(=O)[C@H](C)NC(=O)[C@H](CO)NC(=O)CNC(=O)CNC(=O)CNC(=O)CNC(=O)[C@H](CO)NC(=O)CNC(=O)CNC(=O)CCCC[C@@H]1SC[C@@H]2NC(=O)N[C@@H]21)C(=O)N[C@H]1CSSC[C@@H](C(=O)N[C@@H](CCCCN)C(=O)N[C@@H](CCC(=O)O)C(=O)N[C@@H](CC(C)C)C(=O)O)NC(=O)[C@H](CC(N)=O)NC(=O)[C@H](Cc2c[nH]c3ccccc23)NC(=O)[C@@H]2CCCN2C1=O [SEQ ID NO: 97] (Biotin-GGSGGGGSASRICPWNCKEL-OH; disulfide 13-17)

Kd (FMC63 scFv [3]): > 1000 nM
Compound: RICPWSCMVV [Clone B7]
